# Measurements published in ChEMBL document CHEMBL3102694, “Synthesis of C11-Desmethoxy Soraphen A1α: A natural product analog that inhibits acetyl-CoA carboxylase” (ACS Med Chem Lett, 2013).
# Activity calls are given as the source filed them. The rule behind the calls is not given here.
# What was measured:
# [1] = species on record: Mus musculus; test: Inhibition of acetyl-CoA carboxylase in mouse SCR1163 cells assessed as reduction in [14C]-acetate incorporation into fatty acid at 0.1 to 1 uM after 4 hrs; format: cell-based
# [2] = species on record: Mus musculus; test: Cytotoxicity against mouse SCR1163 cells at 1.25 to 10 uM after 24 to 72 hrs by MTT assay; format: functional, cell-based
# [3] = species on record: Mus musculus; test: Inhibition of acetyl-CoA carboxylase in mouse SCR1693 cells assessed as reduction in [14C]-acetate incorporation into fatty acid at 0.1 to 1 uM after 4 hrs; format: cell-based
structure (smiles),measurement,setting,value
CO[C@@H]1C/C=C/[C@H](C)[C@@H]2O[C@](O)([C@H](C)C(=O)O[C@H](c3ccccc3)CCCC1)[C@H](OC)[C@@H](O)[C@@H]2C,inhibition,[1],59%
same,Activity,[2],Active
same,inhibition,[3],48%
CO[C@H]1CCCC[C@@H](c2ccccc2)OC(=O)[C@@H](C)[C@@]2(O)O[C@H]([C@@H](C)[C@H](O)[C@H]2OC)[C@@H](C)/C=C/[C@H]1OC,inhibition,[1],Active
same,inhibition,[3],Active
